29 compounds from ChEMBL document CHEMBL1129855, “Molecular connectivity to find -blockers with low toxicity” (Bioorg Med Chem Lett, 1997) can be followed below.

What all share (settings): mouse, in vivo
Data set [1] can be described thus: Compound was tested for its toxicity after intravenous administration to mice in experiment 2.
The nature of data set [2]: Compound was tested for its toxicity after oral administration to mice in experiment 2.
The nature of data set [3]: Compound was tested for its toxicity after intravenous administration to mice in experiment 1.
Data set [4] in a line: Compound was tested for its toxicity after oral administration to mice in experiment 1.
The nature of data set [5]: Compound was tested for its toxicity after intravenous administration in mice.
The nature of data set [6]: Compound was tested for its toxicity after oral administration in mice.
Data set [7] can be described thus: The activity was measured in mice after oral administration of the compound. The class given is ADME.
Data set [8] can be described thus: Compound was tested for its toxicity after intravenous administration to mice.

Turning to `CC(C)(C)NCC(O)COc1cccc2c1CCCC2=O` (single isomer, unassigned) [LEVOBUNOLOL], the LD50 (as a rule, the dose at which mortality reaches 50%) in data set [1] amounted to 37.7 mg/kg; in data set [2], 798 mg/kg; in data set [3], 25 mg/kg; in data set [4] it was 700 mg/kg.

`Cc1cc2c(OCC(CNC(C)(C)C)OC(=O)c3ccccc3)cccc2[nH]1` (stereo unspecified) [BOPINDOLOL]: the LD50 in data set [1] came to 15.9 mg/kg; in data set [3], 17 mg/kg.

With `CC(=O)c1cc2cccc(OCC(O)CNC(C)C)c2o1` (stereo unspecified) [BEFUNOLOL], the figures for the median lethal dose (LD50) in data set [1] and in data set [3] were 75.1 mg/kg and 102 mg/kg, respectively.

In the case of `O=C(O)C1CCc2cc(C3CCCCC3)c(Cl)cc21` (stereo unspecified), the LD50 stood at 252 mg/kg in data set [2], 41 mg/kg in data set [4] and 34 mg/kg in data set [5].

As for `CC(C)(C)NCC(O)COc1cccc2c1SCCC2` (stereo unspecified) [TERTATOLOL], the figures for the LD50 in data set [1] and in data set [3] were 34.1 mg/kg and 37 mg/kg, respectively.

Turning to `Cc1ccc(OCC(O)CNC(C)(C)C)c2oc(=O)ccc12` (stereo unspecified) [BUCUMOLOL], the LD50 in data set [1] was found to be 46.8 mg/kg; in data set [2], 828 mg/kg; in data set [3], 33.1 mg/kg; in data set [4], 676 mg/kg.

Consider `CC(=O)Oc1c(C)cc(OCC(O)CNC(C)C)c(C)c1C` (stereo unspecified) [METIPRANOLOL], for which the LD50 in data set [1] stood at 38.8 mg/kg; in data set [3], 31 mg/kg.

Consider `CCCCCC(O)C1C(=O)OC(C)C(O)/C=C/C=C/C=C/C=C/C=C(\C)C(O)CC(O)CC(O)CC(O)CC(O)CC(O)CC1O` (stereo unspecified), for which the figures for the LD50 in data set [6] and in data set [5] were 18 mg/kg and 5 mg/kg, respectively.

With `CCCC(=O)Nc1ccc(OCC(O)CNC(C)C)c(C(C)=O)c1` (stereo unspecified) [ACEBUTOLOL], the LD50 came out at 82.2 mg/kg in data set [1] and 76 mg/kg in data set [3].

In the case of `CCc1cccc2cc(C(O)CNC(C)(C)C)oc12` (stereo unspecified) [BUFURALOL], the LD50 in data set [1] was found to be 25.9 mg/kg; in data set [2], 273 mg/kg; in data set [3], 29.7 mg/kg; in data set [4], 117 mg/kg.

With `CC(CCc1ccccc1)NCC(O)c1ccc(O)c(C(N)=O)c1` (stereo unspecified) [LABETALOL], the LD50 in data set [1] was determined as 51.1 mg/kg; in data set [2], 1370 mg/kg; in data set [3], 47 mg/kg; in data set [4], 1450 mg/kg.

`CC(C)(C)NCC(O)COc1ccc(NC(=O)NC2CCCCC2)cc1` (stereo unspecified) [TALINOLOL]: the LD50 in data set [1] came out at 25.8 mg/kg; in data set [2] it was 1050 mg/kg; in data set [3], 25 mg/kg; in data set [4] it was 593 mg/kg.

As for `CC(C)(C)NC[C@H](O)COc1nsnc1N1CCOCC1` [TIMOLOL], the LD50 was found to be 1460 mg/kg in data set [2] and 1190 mg/kg in data set [4].

`CC(C)NCC(O)COc1cccc2c1C=CC2` (stereo unspecified) [INDENOLOL]: the median lethal dose (LD50) amounted to 32.4 mg/kg in data set [1] and 26 mg/kg in data set [3].

On to `C=CCc1ccccc1OCC(O)CNC(C)C` (stereo unspecified) [ALPRENOLOL], for which the LD50 in data set [2] amounted to 415 mg/kg; in data set [4], 278 mg/kg.

With `N/C(CC(O)COc1cccc2ccccc12)=N/O` (stereo unspecified) [NADOXOLOL], the LD50 in data set [1] is 119 mg/kg; in data set [2] it was 710 mg/kg; in data set [3] it was 180 mg/kg; in data set [4], 1000 mg/kg.

As to `CC(C)(C)NCC(O)COc1cccc2c1C[C@H](O)[C@H](O)C2` (stereo partly specified) [NADOLOL], the LD50 in data set [2] turned out to be 2710 mg/kg; in data set [4] it was 4500 mg/kg.

For the compound `CC1=C(/C=C/C(C)=C/C=C/C(C)=C/C=C/C=C(C)/C=C/C=C(C)/C=C/C2=C(C)CCCC2(C)C)C(C)(C)CCC1` [BETA CAROTENE], the LD50 in data set [6] is 26 mg/kg; in data set [7], 6750 mg/kg.

Turning to `CC(C)NCC(O)c1ccc(NS(C)(=O)=O)cc1` (stereo unspecified) [SOTALOL], the figures for the LD50 in data set [2] and in data set [4] were 2630 mg/kg and 2600 mg/kg, respectively.

Turning to `CC(C)(C)NCC(O)COc1cccc2c1CCC(=O)N2` (stereo unspecified) [CARTEOLOL], the LD50 in data set [1] turned out to be 39.4 mg/kg; in data set [2], 656 mg/kg; in data set [4], 810 mg/kg.

Regarding `CC(C)NCC(O)COc1ccc(CCOCC2CC2)cc1` (stereo unspecified) [BETAXOLOL], the LD50 in data set [1] came to 38 mg/kg; in data set [2] it was 625 mg/kg; in data set [3], 37 mg/kg; in data set [4], 944 mg/kg.

On to `CC(C)(Sc1cc(C(C)(C)C)c(O)c(C(C)(C)C)c1)Sc1cc(C(C)(C)C)c(O)c(C(C)(C)C)c1` [PROBUCOL], for which the LD50 in data set [4] is over 5000 mg/kg; in data set [8] it was 25 mg/kg.

As for `CCC(C)NCC(O)c1ccc2c(c1)CCCC2` (stereo unspecified) [BUTIDRINE], the LD50 in data set [1] worked out at 24.6 mg/kg; in data set [2] it was 212 mg/kg; in data set [3] it was 20.2 mg/kg; in data set [4] it was 235 mg/kg.

In the case of `COCCc1ccc(OCC(O)CNC(C)C)cc1` (stereo unspecified) [METOPROLOL], the LD50 in data set [1] amounted to 292 mg/kg; in data set [2], 3060 mg/kg; in data set [3], 118 mg/kg; in data set [4], 2090 mg/kg.

In the case of `CC(C)NCC(O)c1ccc2ccccc2c1` (stereo unspecified) [PRONETALOL], the LD50 in data set [1] worked out at 38 mg/kg; in data set [2], 486 mg/kg; in data set [3], 46 mg/kg; in data set [4], 512 mg/kg.

Regarding `CC(C)(C)NCC(O)COc1ccccc1OCC1CCCO1` (stereo unspecified) [BUFETOLOL], the LD50 came to 238 mg/kg in data set [2] and 409 mg/kg in data set [4].

As for `CCN(CC)C(=O)Nc1ccc(OCC(O)CNC(C)(C)C)c(C(C)=O)c1` (stereo unspecified) [CELIPROLOL], the LD50 in data set [1] was 42.8 mg/kg; in data set [2], 1770 mg/kg; in data set [3] it was 56.2 mg/kg; in data set [4], 1830 mg/kg.

As to `CC(C)(C)NCC(O)COc1ccccc1C#N` (stereo unspecified) [BUNITROLOL], the LD50 was found to be 998 mg/kg in data set [2] and 1350 mg/kg in data set [4].

On to `CC(C)(C)NCC(O)CSc1nc(-c2ccc(C(N)=O)s2)cs1` (stereo unspecified) [AROTINOLOL], for which the LD50 in data set [1] is 57.8 mg/kg.
